Patent US20260355191A1, “PAN-RAS INHIBITOR COMPOUND” (ADLAI NORTYE BIOPHARMA CO., LTD., priority 2024, published 2026)
pIC50: −log10 of the molar value.

Assays:
AsPC-1 = test: In vitro cell proliferation inhibition assay (CellTiter-Glo), AsPC-1; assay type: cell-based; conditions: AsPC-1, KRAS (p.G12D), 72 h; read-out: IC50, antiproliferative activity
Description: (§1) Due to the diversity of RAS mutations, and in order to evaluate the activity of the compounds in different RAS mutant cell lines, we selected cell lines with KRAS^G12D, KRAS^G12V, KRAS^G12c, NRAS^q61L, KRAS^G13D, KRAS^G12R, and KRAS^WT mutations (see the table below for in vitro activity evaluation and screening of the compounds.
(§2) According to the doubling time of different cell lines, different numbers of cells (1000-5000 cells/well) were seeded into 96-well plates containing 180 μL of the corresponding culture medium, and incubated overnight in a cell incubator at 37 °C with 5% C02. On the following day, the test compounds were pre-diluted in the culture medium in a 3-fold serial dilution series, with the highest concentration being […], resulting in 10 concentration gradients in total. Subsequently, 20 μL of culture medium containing the compounds at different concentrations was added to the cells in the 96-well plates, ensuring a final compound concentration of up to 10 μM, with 10 concentrations in 3-fold dilution. After co-incubation of the cells with the compounds for 72 h, the 96-well plates were removed from the incubator and equilibrated at room temperature for 30 min. Then, 25 μL of CellTiter-Glo® Reagent was added to each well and mixed thoroughly, followed by incubation at room temperature for 10 min. Subsequently, 100 μL of the samples was transferred to white 96-well plates (OptiPlate™-96, PerkinElmer), and […] signal values were read using a multifunctional microplate reader (SpectraMax i3x, Molecular Devices). The signal values were then normalized, and curve fitting was performed using a four-parameter logistic regression equation to calculate the half maximal inhibitory concentration (IC50) of the compounds against the cell lines.

SW480 = test: In vitro cell proliferation inhibition assay (CellTiter-Glo), SW480; assay type: cell-based; conditions: SW480, KRAS (p.G12V), 72 h; read-out: IC50, antiproliferative activity
Description: as §1, §2

H358 = test: In vitro cell proliferation inhibition assay (CellTiter-Glo), H358; assay type: cell-based; conditions: H358, KRAS (p.G12C), 72 h; read-out: IC50, antiproliferative activity
Description: as §1, §2

HepG2 = test: In vitro cell proliferation inhibition assay (CellTiter-Glo), HepG2; assay type: cell-based; conditions: HepG2, NRAS (p.Q61L), 72 h; read-out: IC50, antiproliferative activity
Description: as §1, §2

HCT116 = test: In vitro cell proliferation inhibition assay (CellTiter-Glo), HCT116; assay type: cell-based; conditions: HCT116, KRAS (p.G13D), 72 h; read-out: IC50, antiproliferative activity
Description: as §1, §2

PSN1 = test: In vitro cell proliferation inhibition assay (CellTiter-Glo), PSN1; assay type: cell-based; conditions: PSN1, KRAS (p.G12R), 72 h; read-out: IC50, antiproliferative activity
Description: as §1, §2

MV411 = test: In vitro cell proliferation inhibition assay (CellTiter-Glo), MV411; assay type: cell-based; conditions: MV411, KRAS wild type, 72 h; read-out: IC50, antiproliferative activity
Description: as §2

[1] = Pharmacokinetic study in mice; assay type: in vivo; conditions: mouse, male CD-1 mice; for bioavailability: blood; for bioavailability / AUC / Cmax: po, p.o. 2 mpk; for bioavailability / Vd / clearance: i.v. 1 mpk; for Vd / clearance: iv, 1 mg/kg; for Vd / clearance / AUC / Cmax: whole blood; for AUC / Cmax: 2 mg/kg
Description: To evaluate the pharmacokinetic behavior of the compounds of the disclosure in male CD-1 mice, the test compounds were dissolved in a solvent (5% DMSO/10% solutol/85% water). Twelve male CD-1 mice were divided into two groups, with six animals in each group. Group 1 received a single intravenous bolus (i.v.) administration of the compound, and Group 2 received a single oral (p.o.) administration of the compound. Whole blood samples were collected at 0.083 h (intravenous group only), 0.25, 0.5, 1, 2, 4, 8, and 24 hours after dosing. The concentration of the test compound in whole blood samples was determined using the LC-MS/MS method.

Row | Compound | pIC50 (AsPC-1) | pIC50 (SW480) | pIC50 (H358) | pIC50 (HepG2) | pIC50 (HCT116) | pIC50 (MV411) | bioavailability [1] | Vd [1] | clearance [1] | AUC [1] | Cmax [1] | pIC50 (PSN1)
1 | CCn1c(-c2cc(-c3nnc([C@H]4CCCN(C5COC5)C4)o3)cnc2[C@H](C)OC)c2c3cc(ccc31)-c1csc(n1)C[C@H](NC(=O)[C@H]1C[C@@H]1C)C(=O)N1CCC[C@H](N1)C(=O)OCC(C)(C)C2 (atropisomer, axis not shown) [Compound 18, (1S,2S)—N-((6^3S,4S,Z)-1^1-ethyl-1^2-(2-((S)-1-methoxyethyl)-5-(5-((S)-1-(oxetan-3-yl)piperidin-3-yl)-1,3,4-oxadiazol-2-yl)pyridin-3-yl)-10,10-dimethyl-5,7-dioxo-6^1,6^2,6^3,6^4,6^5,6^6-hexahydro-1^1H-8-oxa-2(4,2)-thiazola-1(5,3)-indola-6(1,3)-pyridazinacycloundecaphane-4-yl)-2-methylcyclopropane-1-carboxamide] | 10.52 | 9.89 | 9.41 | 8.80 | 7.64 | 7.89 |  |  |  |  |  | 8.28
2 | CCn1c(-c2cc(-c3nnc(C4CCN(C5COC5)CC4)o3)cnc2[C@H](C)OC)c2c3cc(ccc31)-c1csc(n1)C[C@H](NC(=O)[C@H]1C[C@@H]1C)C(=O)N1CCC[C@H](N1)C(=O)OCC(C)(C)C2 (atropisomer, axis not shown) [Compound 1, (1S,2S)—N-((6^3S,4S,Z)-1^1-ethyl-1^2-(2-((S)-1-methoxyethyl)-5-(5-(1-(oxetan-3-yl)piperidin-4-yl)-1,3,4-oxadiazol-2-yl)pyridin-3-yl)-10,10-dimethyl-5,7-dioxo-6^1,6^2,6^3,6^4,6^5,6^6-hexahydro-1^1H-8-oxa-2(4,2)-thiazola-1(5,3)-indola-6(1,3)-pyridazinacycloundecaphane-4-yl)-2-methylcyclopropane-1-carboxamide] | 10.30 | 10.15 | 10.22 | 8.30 | ~8.00 | 8.77 |  |  |  |  |  | 8.29
3 | CO[C@@H](C)c1ncc(-c2nnc(C3CCN(C4COC4)CC3)o2)cc1-c1c2c3cc(ccc3n1CC(F)(F)F)-c1csc(n1)C[C@H](NC(=O)C1C[C@@H]1C)C(=O)N1N[C@H](C(=O)OCC(C)(C)C2)C2CC1C2 (stereo partly drawn) [Compound 9] | 10.05 | 10.22 | 10.39 | 9.80 | 9.64 | 9.12 | 63.3% | 2.87 L/kg | 3.7 mL/min/kg | 5740 ng·h/mL | 248 ng/mL | 11.00
4 | CCn1c(-c2cc(-c3nnc(C4CCN(C5COC5)CC4)o3)cnc2[C@H](C)OC)c2c3cc(ccc31)-c1csc(n1)C[C@H](NC(=O)[C@H]1[C@H](C)[C@@H]1C)C(=O)N1CCC[C@H](N1)C(=O)OCC(C)(C)C2 (atropisomer, axis not shown) [Compound 2, (1r,2R,3S)—N-((6^3S,4S,Z)-1^1-ethyl-1^2-(2-((S)-1-methoxyethyl)-5-(5-(1-(oxetan-3-yl)piperidin-4-yl)-1,3,4-oxadiazol-2-yl)pyridin-3-yl)-10,10-dimethyl-5,7-dioxo-6^1,6^2,6^3,6^4,6^5,6^6-hexahydro-1^1H-8-oxa-2(4,2)-thiazola-1(5,3)-indola-6(1,3)-pyridazinacycloundecaphane-4-yl)-2,3-dimethylcyclopropane-1-carboxamide] | 10.22 | 10.05 | 11.70 | 11.00 | 10.15 | 9.80 | 24.5% | 1.95 L/kg | 4.6 mL/min/kg | 1790 ng·h/mL | 167 ng/mL | 11.00
5 | CCn1c(-c2cc(-c3nc(C4CCN(C5COC5)CC4)n(C4COC4)n3)cnc2[C@H](C)OC)c2c3cc(ccc31)-c1csc(n1)C[C@H](NC(=O)[C@H]1C[C@@H]1C)C(=O)N1CCC[C@H](N1)C(=O)OCC(C)(C)C2 (atropisomer, axis not shown) [Compound 26, (1S,2S)—N-((6^3S,4S,Z)-1^1-ethyl-1^2-(2-((S)-1-methoxyethyl)-5-(1-(oxetan-3-yl)-5-(1-(oxetan-3-yl)piperidin-4-yl)-1H-1,2,4-triazol-3-yl)pyridin-3-yl)-10,10-dimethyl-5,7-dioxo-6^1,6^2,6^3,6^4,6^5,6^6-hexahydro-1^1H-8-oxa-2(4,2)-thiazola-1(5,3)-indola-6(1,3)-pyridazinacycloundecaphane-4-yl)-2-methylcyclopropane-1-carboxamide] | 9.60 | 9.27 | 11.00 | 9.60 | 8.49 | 9.19 |  |  |  |  |  | 10.10

Further lines, with some results ahead:

Row | pIC50 (AsPC-1) | pIC50 (SW480) | pIC50 (H358) | pIC50 (HepG2) | pIC50 (HCT116) | pIC50 (MV411) | bioavailability [1] | Vd [1] | clearance [1] | AUC [1] | Cmax [1] | Compound | pIC50 (PSN1)
6 | 11.00 | 10.40 | 10.40 | 9.96 | 10.70 | 9.35 |  |  |  |  |  | CO[C@@H](C)c1ncc(-c2nnc(C3CCN(C4COC4)C[C@@H]3C)o2)cc1-c1c2c3cc(ccc3n1CC(F)(F)F)-c1csc(n1)C[C@H](NC(=O)[C@H]1[C@H](C)[C@@H]1C)C(=O)N1N[C@H](C(=O)OCC(C)(C)C2)C2CC1C2 (stereo partly drawn) [Compound 38] | 11.00
7 | 8.92 | 8.82 | 10.10 | 8.55 | 8.59 | 8.38 |  |  |  |  |  | CCn1c(-c2cc(N3CCN(C)CC3)cnc2[C@H](C)OC)c2c3cc(ccc31)-c1csc(n1)C[C@H](NC(=O)[C@H]1C[C@@H]1C)C(=O)N1CCC[C@H](N1)C(=O)OCC(C)(C)C2 [RMC-6236] | 8.70
8 | 10.30 | 10.22 | 11.00 | 10.30 | 9.24 | 9.00 |  |  |  |  |  | CO[C@@H](C)c1ncc(-c2nnc(C3CCN(C4COC4)C3)o2)cc1-c1c2c3cc(ccc3n1CC(F)(F)F)-c1csc(n1)C[C@H](NC(=O)[C@H]1[C@H](C)[C@@H]1C)C(=O)N1N[C@H](C(=O)OCC(C)(C)C2)C2CC1C2 (stereo partly drawn) [Example 46] | 10.05
9 | 11.00 | 10.70 | 10.52 | 11.00 | 10.52 | 9.25 |  |  |  |  |  | CO[C@@H](C)c1ncc(-c2noc(C3CCN(C4COC4)CC3)n2)cc1-c1c2c3cc(ccc3n1CC(F)(F)F)-c1csc(n1)C[C@H](NC(=O)[C@H]1[C@H](C)[C@@H]1C)C(=O)N1N[C@H](C(=O)OCC(C)(C)C2)C2CC1C2 [Example 42] | 11.00
10 | 9.43 | 9.06 | 9.77 | 10.30 | 7.96 | 8.96 |  |  |  |  |  | CCn1c(-c2cc(-c3nc(C4CCN(C5COC5)CC4)n(CCN(C)C)n3)cnc2[C@H](C)OC)c2c3cc(ccc31)-c1csc(n1)C[C@H](NC(=O)[C@H]1C[C@@H]1C)C(=O)N1CCC[C@H](N1)C(=O)OCC(C)(C)C2 (atropisomer, axis not shown) [Compound 27, (1S,2S)—N-((6^3S,4S,Z)-1^2-(5-(1-(2-(dimethylamino)ethyl)-5-(1-(oxetan-3-yl)piperidin-4-yl)-1H-1,2,4-triazol-3-yl)-2-((S)-1-methoxyethyl)pyridin-3-yl)-1^1-ethyl-10,10-dimethyl-5,7-dioxo-6^1,6^2,6^3,6^4,6^5,6^6-hexahydro-1^1H-8-oxa-2(4,2)-thiazola-1(5,3)-indola-6(1,3)-pyridazinacycloundecaphane-4-yl)-2-methylcyclopropane-1-carboxamide] | 9.80
11 | 10.22 | 9.43 | 11.00 | 10.66 | 8.96 | 9.38 |  |  |  |  |  | CO[C@@H](C)c1ncc(-c2nnc(C3CCN(C4CCN(C)CC4)CC3)o2)cc1-c1c2c3cc(ccc3n1CC(F)(F)F)-c1csc(n1)C[C@H](NC(=O)[C@H]1[C@@H]3COC[C@@H]31)C(=O)N1N[C@H](C(=O)OCC(C)(C)C2)C2CC1C2 [Example 45] | 10.40
